# Laboratory results from patent publication US10857180B2, “Pharmaceutical composition for improving health, cure abnormalities and degenerative disease, achieve anti-aging effect of therapy and therapeutic effect on mammals and method thereof” (priority 2014, dated 2020).
# Where two headings read alike, the source gives them in different places.
# Legend:
# [1] = tested on: stem cells derived from rat fibroblasts (RF); type: cell-based
# [2] = tested on: renal cell carcinoma (PA) cells; assay: Immunocytochemistry (H-Score) of PA cells; type: cell-based, rat
# Method: When making the immunocytochemistry (ICC) assay, cells on microscope glasses (cytospin preparations) were fixed in the solution (methanol+acetone 1:1) for 2 hours at t 20° C. and incubated with 1% solution of bovine serum albumin (BSA) for 20 minutes. Then the monoclonal antibodies—CD44 (Diagnostic BioSystems), E-cadherin (ThermoScientific), N-cadherin (NeoMarker, BioLegend)—were applied for 60 minutes, after which the Poly Vue imaging system conjugated with peroxidase was used and the enzyme activity was detected using diaminobenzidine (ThermoScientific) as a substrate.
# (§1) After the immunocytochemical reaction the preparations were washed with water and counterstained with hematoxylin-eosin (for 15-30 seconds). The results were analyzed by counting cells with expression (brown colored cells), using a light microscope and were assessed using the classical H-Score method: S=1×A+2×B+3×C, where S is the H-Score index giving a range of 0 (protein is not detected) to 300 (high-level expression in 100% of the cells); A is the percentage of weakly stained cells, B is the percentage of moderately stained cells and C is the percentage of strongly stained cells.
# [3] = tested on: Burkitt lymphoma (Namalwa line) cells; assay: Immunocytochemical analysis (H-Score) of Namalwa cells; type: cell-based, human; details: for amount of N-cadherin-positive cells: exception ^39K 2 mg/ml and ^24Mg 2 mg/ml
# From the text: However, articles about an important role of EMT in the study of lymphomas and leukemias as well have started coming out recently, which is an interesting stage in the research into the tumor process as a whole, since these tumors radically differ from “usual solid neoplasias” in their histogenesis and, accordingly, in their phenotypic characteristics. Thus, such comprehensive research into adhesion proteins and cell cytoskeleton in the tumor cells of Burkitt lymphoma and acute promyelocyte leukemia after the action of the group of components under study is a relevant and contemporary attempt of a deeper analysis of the modification of a cell phenotype of tumor cells in order to assess changes in the degree of their malignancy. Materials and methods for leukemia cell lines HL-60 and Namalva and cell culture conditions will now be described. […] The first plate was for coloring cells with trypan blue and the second one was for the MTT assay.
# Initial concentrations of the components.
# After preparation of the corresponding concentrations of the components, they were introduced into appropriate wells of the plate in which HL-60 or Namalva cell were in complete medium. The volume of the culture medium with cells was 100 mcl per well and the concentration of cells in the suspension was 3×10^5 cells/ml (3×10^6/plate). After the components were placed into the wells, the final concentration (component+cells in the suspension) became smaller and corresponded to the values given in the Table of Concentration Characteristics.
# After the incubation the medium was removed from the wells and the formed tetraformazan crystals were dissolved in 50 mcl of dimethylsulphoxide (Applichem, Germany). The results were fixed using a multi-well spectrophotometer with an excitation wave length of 540 nm. The percent of inhibition of cell viability was calculated using the following formula: IR=(1−A 540 (experiment)/A540 (control))×100%. In carrying out the immunocytochemical (ICC) assay, cells on microscope glasses (cytospin preparations) were fixed in the solution (methanol+acetone (1:1)) for 2 hours at t−20° C. and then incubated with a 1% solution of bovine serum albumin (BSA) for 20 minutes.
# Then such monoclonal antibodies as CD44, N-cadherin, ICAM and IgM were applied for the period of time specified in the manufacturer's instructions (30 to 60 minute time intervals), after which Poly Vue imaging system conjugated with peroxidase was used and the enzyme activity was detected using diaminobenzidine (ThermoScientific) as a substrate. After the immunocytochemical reaction, the preparations were rinsed with water and counterstained with hematoxylin and eosin for 15 to 30 seconds. The results were analyzed by a quantitative estimation of cells with the marker expression (increased brown color of cells corresponded to a higher degree of expression of the marker) using a light microscope and assessed using the classical H-Score method: S=1×A+2×B+3×C, where S is the H-Score index the values of which are within the scope of 0 (protein is not detectable) to 300 (high-level expression in 100% of the cells), A is a percentage of weakly stained cells, B is the percentage of moderately stained cells, and C the percentage of strongly stained cells.
# [4] = tested on: human colon adenocarcinoma (COLO 205 line) cells; assay: Immunocytochemistry (H-Score) of COLO 205 cells; type: cell-based
# Method: (§2) When making the immunocytochemistry (ICC) assay, cells on microscope glasses (cytospin preparations) were fixed in the solution (methanol+acetone 1:1) for 2 hours at t 20° C. and incubated with 1% solution of bovine serum albumin (BSA) for 20 minutes. Then the monoclonal antibodies-CD44 (Diagnostic BioSystems), E-cadherin (ThermoScientific), N-cadherin (NeoMarker, BioLegend), SLUG (GeneTex)—were applied for the time period specified by the manufacturer (30 to 60 minutes), after which the Poly Vue imaging system conjugated with peroxidase was used and the enzyme activity was detected using diaminobenzidine (ThermoScientific) as a substrate. After the immunocytochemical reaction the preparations were washed with water and counterstained with hematoxylin-eosin (for 15 to 30 seconds).
# as §1, with “The” for “After the immunocytochemical reaction the preparations were washed with water and counterstained with hematoxylin-eosin (for 15-30 seconds). The”, “cells)” for “cells),”, “microscope,” for “microscope”, “staining” for “stained”
# [5] = tested on: human breast cancer (MCF-7 line) cells; assay: Immunocytochemistry (H-Score) of MCF-7 cells; type: cell-based
# Method: as §2
# as §1, with “The” for “After the immunocytochemical reaction the preparations were washed with water and counterstained with hematoxylin-eosin (for 15-30 seconds). The”, “cells)” for “cells),”, “microscope,” for “microscope”, “staining” for “stained”
# [6] = dose not stated, 72 hours in the control
smiles,measurement,setting,value
O=S(=O)([O-])[O-].[24Mg+2] [^24Mg],time of restoration of the cell monolayer,[1]; ^24Mg 2 mg/ml,72 h
same,time of restoration of the cell monolayer,[1]; ^24Mg 3 mg/ml,65 to 72 h
same,time of restoration of the cell monolayer,[1]; ^24Mg 4 mg/ml,82 h
same,number of CD44-positive cells,[2]; ^24Mg 2 mg/ml,did not differ from that of control cells
same,number of CD44-positive cells,[2]; ^24Mg 3.5 mg/ml,increase significantly
same,number of E-cadherin-positive cells,[2]; ^24Mg in 2 doses,increase in the number
same,number of cells expressing N-cadherin,[2]; ^24Mg in 2 doses,slight increase
same,IgM marker expression level,[3],decrease in the expression level
same,amount of N-cadherin-positive cells,[3],in most cases increased
same,number of E-cadherin-positive cells,[4],increasing the number
same,slug transcription factor expression,[4],in the cytoplasm and in the nucleus
same,number of Slug-positive cells,[5],insignificantly influenced
[39K+].[Cl-] [^39K],time of restoration of the cell monolayer,[1]; ^39K 1 mg/ml,72 h
same,time of restoration of the cell monolayer,[1]; ^39K 2 mg/ml,96 h
same,time of restoration of the cell monolayer,[1]; [6],72 h
same,number of E-cadherin-positive cells,[2]; ^39K 0.4 mg/ml,significantly increased
same,number of E-cadherin-positive cells,[2]; ^39K 2 mg/ml,significantly reduced
same,number of CD44-positive cells,[2]; ^39K both doses,significantly increased
same,N-cadherin,[2]; ^39K dose D2,almost complete inhibition
same,IgM marker expression level,[3],decrease in the expression level
same,expression of CD44 marker,[3],significant inhibition
same,amount of N-cadherin-positive cells,[3],in most cases increased
same,number of E-cadherin-positive cells,[4],significantly increased
same,slug transcription factor expression,[4],increased its expression in the cytoplasm
same,"E-cadherin, H-Score scale",[4]; 87 in the control,184
same,number of Slug-positive cells,[5],insignificantly influenced
O=S(=O)([O-])[O-].[64Zn+2] [^64Zn],time of restoration of the cell monolayer,[1]; [6],72 h
same,"CD44 marker positive cells, H-Score scale",[2]; 3.2 mcg/ml,126 units
same,N-cadherin positive cells,[2]; ^64Zn 0.128 mcg/ml,slight increase
same,number of E-cadherin-positive cells,[2]; ^64Zn 0.128 mcg/ml,increased number
same,N-cadherin-positive cells,[2]; ^64Zn 3.2 mcg/ml,substantial increase
same,number of E-cadherin-positive cells,[2]; ^64Zn 3.2 mcg/ml,decrease in the number
same,IgM marker expression level,[3],decrease in the expression level
same,expression of CD44 marker,[3],significant inhibition
same,"number of ICAM-positive cells, H-Score method",[3]; ^64Zn as sulfate 5 mcg/ml,210
same,amount of N-cadherin-positive cells,[3],in most cases increased
same,number of E-cadherin-positive cells,[4],significantly increased
same,slug transcription factor expression,[4],in the cytoplasm and in the nucleus
same,number of Slug-positive cells,[5],insignificantly influenced
